We go through 2 substances from patent US5856439A, “Farnesyl transferase inhibitors, preparation thereof, and pharmaceutical compositions containing same” (Rhone-Poulenc Rorer S.A., priority 1995, dated 1999).

The target of this assay is T1, human farnesyl transferase purified from THP1 cell cultures (Homo sapiens, UniProt P49354+P49356).
T1 construct: human farnesyl transferase purified from THP1 cell cultures; endogenous in cells; host or cells: THP1 cell cultures (enzyme purified from them)
Kind of assay: Farnesyl transferase inhibition: [3H]farnesyl transfer from [3H]FPP to p21 H-ras. It is filed as biochemical. The conditions noted are these: 20 minutes at 37° C., 9 concentrations, each test repeated 3 times, read-out: Inhibitory activity IC50. The method, then: Farnesyl transferase activity is determined by the quantity of [^3 H]farnesyl transferred from [^3 H]farnesyl pyrophosphate [[^3 H]FPP) to the p21 H-ras protein. The standard reaction mixture is composed, for a final volume of 60 μl, of 50 mM Tris-HCl, 5 mM MgCl2, 5 mM dithiotreitol, 0.2% octyl β-D-glucopyranoside, 200 picomol p21 H-ras, 4.5 picomol [^3 H]FPP (activity 61000 dpm/picomol).
Reaction is initiated by adding approximately 5 ng of human farnesyl transferase purified from THP1 cell cultures. After incubation for 20 minutes at 37° C. in a microtitration plate containing 96 1-cm^3 wells per plate (Titer Plate®, Beckman), the reaction is stopped by adding 0.4 cm^3 of 0.1% SDS in methanol at 0° C. The mixture is then treated with 0.4 cm^3 of 30% trichloroacetic acid® (TCA) in methanol. The plates are left in ice for 1 hour. […] The membranes are dried in a microwave oven, then impregnated with scintillation medium by melting Meltilex® (Pharmacia) under hot air, and lastly counted in cpm in a β-Plate® counter (LKB). […]
The percentage inhibition values are obtained by comparison of the tests with and without inhibitor after deduction of blanks, the IC50 values being measured on the basis of the inhibitions obtained with 9 different concentrations using Enzfitter® or Grafit® software.

Take “Cys-(N-Me)Val-[trans-3-phenyl-DL-prolyl]-Met”: the IC50 turned out to be 920 nM.

Turning to “Cys-(N-Me)Val-[cis-3-phenyl-DL-prolyl]-Met”, the IC50 worked out at 15.5 nM.

A word on the IC50: it is the midpoint of a concentration-inhibition curve.
